From patent US20170144969A1, “ANT[…], METHOD FOR PRODUCTION AND USES THEREOF” (priority 2014, published 2017)
Values joined by “and” are separate entries in the source; they are usually repeats but may differ in a detail not shown here. Equal values may be shown once. Read-outs that look alike come from different tables or passages of the source.

Legend:
[1] = tested on: S. aureus (MTCC 737); assay: Minimum Inhibitory Concentration, micro-dilution broth; type: cell-based, Staphylococcus aureus; conditions: 37° C.
[2] = tested on: Enterococcus faecium (ATCC 19634); assay: as above; type: cell-based; conditions: 24 h, 37° C., read-out: Minimum Inhibitory Concentration E. faceium
[3] = tested on: E. coli (MTCC 443); assay: as above; type: cell-based; conditions: 24 h, 37° C.
[4] = tested on: MRSA (ATCC 33591); assay: as above; type: cell-based, methicillin-resistant S. aureus; conditions: 24 h, 37° C.
[5] = tested on: vancomycin resistant Enterococcus faecium (VRE) (ATCC 51559); assay: as above; type: cell-based; conditions: 24 h, 37° C.
[6] = tested on: Klebsiella pneumoniae (ATCC 700603); assay: as above; type: cell-based; conditions: 24 h, 37° C.
[7] = tested on: human Red Blood Cells; assay: Haemolytic activity; conditions: for HC50: human RBCs, 1 h at 37° C.; for hemolysis: at 1000 µM concentration

Molecule: CCCCCCCCCC(=O)N(CCCNC(=O)[C@@H](N)Cc1ccccc1)CCCNC(=O)[C@@H](N)Cc1ccccc1.O=C(O)C(F)(F)F.O=C(O)C(F)(F)F [Compound 1, N,N-bis-[{3-(^LPhe)amino}propyl]decanamide bis(trifluoroacetate)]
- MIC ([1]; 24 h): 19 µM
- MIC [2]: 36 µM
- MIC [3]: 24 µM
- Minimum Inhibitory Concentration MRSA [4]: 25 µM
- MIC [5]: 17 µM
- Minimum Inhibitory Concentration K. pneumonie [6]: 70 µM
- HC50 ([7]; Table 3): 232

Molecule: CCCCCCCCCCCCCC(=O)N(CCCNC(=O)[C@@H](N)Cc1ccccc1)CCCNC(=O)[C@@H](N)Cc1ccccc1.O=C(O)C(F)(F)F.O=C(O)C(F)(F)F [Compound 3, N,N-bis-[{3-(^LPhe)amino}propyl]tetradecanamide bis(trifluoroacetate)]
- MIC ([1]; 24 h): 7 µM
- MIC [2]: 5.2 µM
- MIC [3]: 16 µM
- Minimum Inhibitory Concentration MRSA [4]: 4.8 µM
- MIC [5]: 2.8 µM
- Minimum Inhibitory Concentration K. pneumonie [6]: 18 µM
- HC50 ([7]; Table 3): 144

Molecule: CCCCCCCCCCCCCCCC(=O)N(CCCNC(=O)[C@@H](N)Cc1ccccc1)CCCNC(=O)[C@@H](N)Cc1ccccc1.O=C(O)C(F)(F)F.O=C(O)C(F)(F)F [Compound 4, N,N-bis-[{3-(^LPhe)amino}propyl]hexadecanamide bis(trifluoroacetate)]
- MIC ([1]; 24 h): 10 µM
- MIC [2]: 8.5 µM
- MIC [3]: 225 µM
- Minimum Inhibitory Concentration MRSA [4]: 5.2 µM
- MIC [5]: 3 µM
- Minimum Inhibitory Concentration K. pneumonie [6]: 70 µM
- HC50 ([7]; Table 3): 83

Molecule: CCCCCCCCCCCCCCCCCC(=O)N(CCCNC(=O)[C@@H](N)Cc1ccccc1)CCCNC(=O)[C@@H](N)Cc1ccccc1.O=C(O)C(F)(F)F.O=C(O)C(F)(F)F [Compound 5, N,N-bis-[{3-(^LPhe)amino}propyl]octadecanamide bis(trifluoroacetate)]
- MIC ([1]; 24 h): 12 µM
- MIC [2]: 11 µM
- MIC [3]: 270 µM
- Minimum Inhibitory Concentration MRSA [4]: 5.6 µM
- MIC [5]: 3.2 µM
- Minimum Inhibitory Concentration K. pneumonie [6]: 95 µM
- HC50 ([7]; Table 3): 71

Molecule: CCCCCCCCCCCCCC(=O)N(CCCNC(=O)[C@@H](N)Cc1c[nH]c2ccccc12)CCCNC(=O)[C@@H](N)Cc1c[nH]c2ccccc12.O=C(O)C(F)(F)F.O=C(O)C(F)(F)F [Compound 7, N,N-bis-[{3-(^LTrp)amino}propyl]tetradecanamide bis(trifluoroacetate)]
- MIC ([1]; 24 h): 2.5 µM
- MIC [2]: 2.5 µM
- MIC [3]: 39 µM
- MIC [5]: 2.7 µM

Molecule: CCCCCCCCCCCCCCCC(=O)N(CCCNC(=O)[C@@H](N)Cc1c[nH]c2ccccc12)CCCNC(=O)[C@@H](N)Cc1c[nH]c2ccccc12.O=C(O)C(F)(F)F.O=C(O)C(F)(F)F [Compound 8, N,N-bis-[{3-(^LTrp)amino}propyl]hexadecanamide bis(trifluoroacetate)]
- MIC ([1]; 24 h): 6.5 µM
- MIC [2]: 5.4 µM
- MIC [3]: >257 µM
- MIC [5]: 7 µM

Molecule: CCCCCCCCCC(=O)N(CCCNC(=O)[C@@H](N)CCCCN)CCCNC(=O)[C@@H](N)CCCCN.O=C(O)C(F)(F)F.O=C(O)C(F)(F)F [Compound 9, N,N-bis-[{3-(^LLys)amino}propyl]decanamide bis(trifluoroacetate)]
- MIC ([1]; 24 h): 53 µM
- MIC [2]: 60 µM
- MIC [3]: 40 µM
- Minimum Inhibitory Concentration MRSA [4]: 65 µM
- MIC [5]: 58 µM
- Minimum Inhibitory Concentration K. pneumonie [6]: 98 µM
- HC50 ([7]; Table 3): >1000
- hemolysis [7]: did not show any hemolytic

Molecule: CCCCCCCCCCCC(=O)N(CCCNC(=O)[C@@H](N)CCCCN)CCCNC(=O)[C@@H](N)CCCCN.O=C(O)C(F)(F)F.O=C(O)C(F)(F)F [Compound 10, N,N-bis-[{3-(^LLys)amino}propyl]dodecanamide bis(trifluoroacetate)]
- MIC ([1]; 24 h): 37 µM
- MIC [2]: 32 µM
- MIC [3]: 14 µM
- Minimum Inhibitory Concentration MRSA [4]: 45 µM
- MIC [5]: 30 µM
- Minimum Inhibitory Concentration K. pneumonie [6]: 40 µM
- HC50 ([7]; Table 3): >1000
- hemolysis [7]: did not show any hemolytic

Molecule: CCCCCCCCCCCCCCCC(=O)N(CCCNC(=O)[C@@H](N)CCCCN)CCCNC(=O)[C@@H](N)CCCCN.O=C(O)C(F)(F)F.O=C(O)C(F)(F)F [Compound 12, N,N-bis-[{3-(^LLys)amino}propyl]hexadecanamide bis(trifluoroacetate)]
- MIC [2]: 1.1 µM
- MIC [3]: 5.4 µM
- Minimum Inhibitory Concentration MRSA [4]: 4.8 µM
- MIC [5]: 1 µM
- Minimum Inhibitory Concentration K. pneumonie [6]: 6.5 µM
- HC50 ([7]; Table 3): 264

Molecule: CCCCCCCCCCCCCCCCCC(=O)N(CCCNC(=O)[C@@H](N)CCCCN)CCCNC(=O)[C@@H](N)CCCCN.O=C(O)C(F)(F)F.O=C(O)C(F)(F)F [Compound 13, N,N-bis-[{3-(^LLys)amino}propyl]octadecanamide bis(trifluoroacetate)]
- MIC ([1]; 24 h): 7.7 µM
- MIC [3]: 8.4 µM
- Minimum Inhibitory Concentration MRSA [4]: 14 µM
- MIC [5]: 2.2 µM
- Minimum Inhibitory Concentration K. pneumonie [6]: 7.5 µM
- HC50 ([7]; Table 3): 108

Molecule: CCCCCCCCCCCCCC(=O)N(CCCNC(=O)[C@@H](N)CCCN)CCCNC(=O)[C@@H](N)CCCN.O=C(O)C(F)(F)F.O=C(O)C(F)(F)F [Compound 14, N,N-bis-[{3-(^LOrn)amino}propyl]tetradecanamide bis(trifluoroacetate)]
- MIC ([1]; 24 h): 7.9 µM
- MIC [2]: 5.2 µM
- MIC [3]: 6.6 µM
- MIC [5]: 5.3 µM

Molecule: CCCCCCCCCCCCCCCC(=O)N(CCCNC(=O)[C@@H](N)CCCN)CCCNC(=O)[C@@H](N)CCCN.O=C(O)C(F)(F)F.O=C(O)C(F)(F)F [Compound 15, N,N-bis-[{3-(^LOrn)amino}propyl]hexadecanamide bis(trifluoroacetate)]
- MIC ([1]; 24 h): 6.4 µM
- MIC [2]: 3.2 µM
- MIC [3]: 5.2 µM
- MIC [5]: 3 µM

Molecule: CCCCCCCCCCCCCCCC(=O)N(CCCNC(=O)[C@H](N)CCCCN)CCCNC(=O)[C@H](N)CCCCN.O=C(O)C(F)(F)F.O=C(O)C(F)(F)F [Compound 17, N,N-bis-[{3-(^DLys)amino}propyl]hexadecanamide bis(trifluoroacetate)]
- MIC ([1]; 24 h): 3.9 µM
- MIC [2]: 2.7 µM
- MIC [3]: 4.8 µM
- MIC [5]: 2.2 µM

Molecule: N[C@@H](Cc1ccccc1)C(=O)NCCCN(CCCNC(=O)[C@@H](N)Cc1ccccc1)C(=O)Cc1cccc2ccccc12 [Compound 21, N,N-bis-[{3-(^LPhe)amino}propyl]α-naphthylacetamide bis(trifluoroacetate)]
- MIC ([1]; Staphylococcus aureus, MTCC737, 24 h): > 304 µM
- MIC ([2]; Enterococcus faecium, ATCC19634, 24 h): > 304 µM
- MIC ([3]; Escherichia coli, MTCC443): > 304 µM
- MIC [5]: > 304 µM

Molecule: N[C@@H](Cc1ccccc1)C(=O)NCCCNCCCNC(=O)[C@@H](N)Cc1ccccc1.O=C(O)C(F)(F)F.O=C(O)C(F)(F)F.O=C(O)C(F)(F)F [Compound 22, N^1-^LPhe-N^3-[{3-(^LPhe)amino}propyl]propane-1,3-diamine tris(trifluoroacetate)]
- MIC ([1]; 24 h): >250 µM
- MIC [2]: >250 µM
- MIC [3]: >250 µM
- Minimum Inhibitory Concentration MRSA [4]: >250 µM
- MIC [5]: >250 µM
- Minimum Inhibitory Concentration K. pneumonie [6]: >250 µM

Molecule: NCCCC[C@H](N)C(=O)NCCCNCCCNC(=O)[C@@H](N)CCCCN.O=C(O)C(F)(F)F.O=C(O)C(F)(F)F.O=C(O)C(F)(F)F [Compound 23, N^1-^LLys-N^3-[{3-(^LLys)amino}propyl]propane-1,3-diamine tris(trifluoroacetate)]
- MIC ([1]; 24 h): >250 µM
- MIC [2]: >250 µM
- MIC [3]: >250 µM
- Minimum Inhibitory Concentration MRSA [4]: >250 µM
- MIC [5]: >250 µM
- Minimum Inhibitory Concentration K. pneumonie [6]: >250 µM

Molecule: CCCCCCCCCCCCCCCC(=O)N(CCCNC(=O)[C@@H](N)[C@@H](C)CC)CCCNC(=O)[C@@H](N)[C@@H](C)CC.O=C(O)C(F)(F)F.O=C(O)C(F)(F)F [Compound 53, N,N-bis-[{3-(^LIle)amido}propyl]hexadecanamide bis(trifluoroacetate)]
- MIC ([1]; 24 h): 4 µM
- MIC [2]: 3 µM
- MIC [3]: 26 µM
- Minimum Inhibitory Concentration MRSA [4]: 2.6 µM and 2.7 µM
- MIC [5]: 4.2 µM and 2.6 µM
- HC50 ([7]; Table 6): 60 µM

Molecule: CCCCCCCCCCCCCC(=O)N(CCCNC(=O)[C@@H](N)CC(C)C)CCCNC(=O)[C@@H](N)CC(C)C.O=C(O)C(F)(F)F.O=C(O)C(F)(F)F [Compound 55, N,N-bis-[{3-(^LLeu)amido}propyl]tetradecanamide bis(trifluoroacetate)]
- MIC ([1]; 24 h): 3.6 µM
- MIC [2]: 4.2 µM
- MIC [3]: 5.4 µM
- HC50 ([7]; Table 6): 118 µM

Molecule: N^1-octyl-N^3-(Boc-^LAla)-N^1-[3-{(Boc-^LAla)amino}propyl]propane-1,3-diamine tris(trifluoroacetate) [Compound 19]
- MIC ([1]; 24 h): 313 µM
- MIC [3]: 343 µM

Molecule: N^1-octyl-N^3-(Boc-^LLys)-N^1-[3-{(Boc-^LLys)amino}propyl]propane-1,3-diamine tris(trifluoroacetate) [Compound 20]
- MIC ([1]; 24 h): 86 µM
- MIC [3]: 133 µM

Molecule: N^1-octyl-N^3-(Boc-^LPhe)-N^1-[3-{(Boc-^LPhe)amino}propyl]propane-1,3-diamine tris(trifluoroacetate) [Compound 18]
- MIC ([1]; 24 h): 38 µM
- MIC [3]: 68 µM
